From paper PMC6268061, “Investigation of the Biological Properties of (Hetero)Aromatic Thiosemicarbazones” (Molecules, 2012) come the findings set out here.

Values after ≈ are worked out from the molar mass of the structure shown. Values joined by “and” are separate entries in the source; they are usually repeats but may differ in a detail not shown here. Equal entries are not always repeated. Where two headings read alike, the source gives them in different places.

One data set concerns Candida glabrata 20/I. Nature of the data set: In vitro antifungal susceptibility, broth microdilution. Format: cell-based. Particulars: Nakaseomyces glabratus, read-out: MIC (IC80) CG.
Data set [1] in a line: Lipophilicity determination using RP-HPLC (capacity factor, log k). Type of data set: physicochemical. The settings on record: C18, MeOH 55%/H2O 45%. The source says:
Reversed phase high performance liquid chromatography (RP-HPLC) methods have become popular and are widely used for lipophilicity measurements. The general procedure is the measurement of the directly accessible retention time under isocratic conditions using varying amounts of methanol as an organic modifier in the mobile phase using RP columns and calculating the logarithm of the capacity factors (log k). Log k is the logarithm of the capacity factors in chromatographic approaches that is related to the partitioning of a compound between a mobile and a (pseudo-)stationary phase. Log k is used as the lipophilicity index converted to log P scale.
A Waters Alliance 2695 XE HPLC separation module and a Waters Photodiode Array Detector 2996 (Waters Corp., Milford, MA, USA) were used. A Symmetry® C18 5 μm, 4.6 × 250 mm, Part No. WAT054275 (Waters Corp.) chromatographic column was used. The HPLC separation process was monitored using Empower™ 2 Chromatography Data Software, Waters 2009 (Waters Corp.). A mixture of MeOH p.a. (55%) and H2O-HPLC-Mili-Q Grade (45%) was used as a mobile phase. The total flow of the column was 0.9 mL/min, injection volume 30 μL, column temperature 30 °C and sample temperature 10 °C. A detection wavelength of 210 nm was chosen. A KI methanolic solution was used for the determination of dead time (tD). Retention times (tR) were measured in minutes. The capacity factors k were calculated using the Empower™ 2 Chromatography Data Software according to the formula k = (tR − tD)/tD, where tR is the retention time of the solute, whereas tD denotes the dead time obtained using an unretained analyte. Log k, calculated from the capacity factor k, is used as the lipophilicity index converted to log P scale.

A further data set has as its system Candida krusei ATCC 6258. Briefly: In vitro antifungal susceptibility, broth microdilution. The settings on record: Pichia kudriavzevii, read-out: MIC (IC80) CK. Type of data set: cell-based.
The next data set relates to Absidia corymbifera 272. The data set is described as above. The settings on record: read-out: MIC (IC50) AC. Format: cell-based.
Data set [2] has as its system Trichophyton mentagrophytes 445. The description is as above. Type of data set: cell-based. Particulars: read-out: MIC (IC50) TM.
Another data set has as its system Candida tropicalis 156. The description is as above. Type of data set: cell-based. Particulars: read-out: MIC (IC80) CT.
For data set [3], the system named is Candida albicans ATCC 44859. The description is as above. Format: cell-based. Particulars: read-out: MIC (IC80) CA.
For data set [4], the system named is Aspergillus fumigatus 231. The data set is described as above. Format: cell-based. Particulars: read-out: MIC (IC50) AF.
Data set [5] concerns Trichosporon beigelii 1188. Described as above. Format: cell-based. An excerpt: The broth microdilution test was used for the assessment of the in vitro antifungal activity of the synthesized compounds against Candida albicans ATCC 44859 (CA), Candida tropicalis 156 (CT), Candida krusei ATCC 6258 (CK), Candida glabrata 20/I (CG), Trichosporon beigelii 1188 (TB), Aspergillus fumigatus 231 (AF), Absidia corymbifera 272 (AC), and Trichophyton mentagrophytes 445 (TM). Fluconazole (FLU) was used as the standard since it is a clinically used antimycotic drug. The procedure was performed using a twofold dilution of the compounds in RPMI 1640 (Sevapharma a.s., Prague, Czech Republic) buffered to pH 7.0 with […] of 3-morpholino-propane-1-sulfonic acid (MOPS, Sigma, Prague, Czech Republic). The final concentrations of the compounds ranged from 500 to 0.975 μmol/L. Drug-free controls were included. The determination of minimum inhibitory concentration (MIC) was performed according to the Clinical and Laboratory Standards Institute (CLSI, formerly NCCLS) reference protocol M27-A2 for yeasts (IC80 value) and M38-A for moulds (IC50 value). IC80 and IC50 were defined as an 80% resp. 50% or greater reduction in growth in comparison with the control. The values of MICs were determined after 24 and 48 h of static incubation at 35 °C. The final MICs for T. mentagrophytes, were determined after 72 and 120 h of incubation.

Data set [6] deals with HCT-116 human colon cancer cells (p53 wild type). Briefly: In vitro antiproliferative activity, MTS assay. Format: cell-based. Particulars: read-out: HCT-116 IC50. Here is the method: The antiproliferative activity of all of the compounds was examined against the human colon cancer (HCT-116) cell line using an MTS assay. The HCT-116 p53 wild type cell line was chosen on the basis of our former experience and some results on the activity of quinoline-based thiosemicarbazones that was published recently. Namely, compounds 4a–l have been tested previously for their wide-ranging anticancer activity. The antiproliferative activity of the compounds evaluated was assessed using Doxorubicin as a reference compound. In general, quinoline-based thiosemicarbazones 4 seem to have a much better anticancer activity than halogenophenyl compounds 3. Thus, the quinoline nucleus can be defined as being crucial for antiproliferative activity. A more detailed analysis of the anticancer activity of quinoline-based thiosemicarbazone is available. […] Nevertheless, some more general conclusions can be drawn from the gathered data. […] The free amino group or substitution pattern with small substituents such as methyl or ethyl are favorable for activity. According to our former results the chelating ability of the compounds may be one of the prerequisites of the antiproliferative activity. In this study we have measured the UV-VIS spectra of the compounds in presence of various concentration of Fe^3+ cations to observe its chelating potency (supplementary material). […] However as 4j give also two points at 330 and 385 nm, iron chelating ability should be regarded only as one of the factor influencing the biological activity.
The human colon cancer cell line HCT116 with the wild type p53 gene (p53^+/+) were obtained from Maria Sklodowska-Curie Memorial Cancer Center in Gliwice, Poland. Briefly, the cells were seeded in 96-well plates (3 × 10^3 cells/well) in cellular proliferation assays 24 h before the addition of the chelators. The assay was performed following a 72 h incubation with varying concentrations of the agents. Each compound was tested in triplicate in a single experiment with each experiment being repeated 3 times. After 72 h incubation with the compounds being investigated, 20 µL of MTS solution was added to each well (100 µL) and incubated for 1 h at 37 °C. The optical densities of the samples were analyzed at 490 nm. Results were expressed as a percentage of the control. The inhibitory concentration (IC50) was defined as the compound concentration necessary to reduce the absorbance to 50% of the untreated control.

Data set [7] deals with photosynthetic electron transport (PET) in spinach chloroplasts. Briefly: Inhibition of photosynthetic electron transport (PET) in spinach chloroplasts. Type of data set: biochemical, Spinacia oleracea L. Particulars: DCPIP photoreduction. How it is done:
Chloroplasts were prepared from spinach (Spinacia oleracea L.) according to Masarovicova and Kralova. The inhibition of the photosynthetic electron transport (PET) in spinach chloroplasts was determined spectrophotometrically (Genesys 6, Thermo Fisher Scientific, Waltham, MA, USA) using an artificial electron acceptor 2,6-dichlorophenol-indophenol (DCIPP) according to Kralova et al. and the rate of photosynthetic electron transport was monitored as a photoreduction of DCPIP. The measurements were carried out in a phosphate buffer (0.02 mol/L, pH 7.2) containing sucrose (0.4 mol/L), MgCl2 (0.005 mol/L) and NaCl (0.015 mol/L). The chlorophyll content was 30 mg/L in these experiments and the samples were irradiated (~100 W/m^2 with 10 cm distance) with a halogen lamp (250 W) using a 4 cm water filter to prevent warming of the samples (suspension temperature 22 °C). The compounds studied were dissolved in DMSO due to their limited water solubility. […] The inhibitory efficiency of the compounds studied was expressed by IC50 values, i.e., by the molar concentration of the compounds that caused a 50% decrease in the oxygen evolution rate relative to the untreated control.

Where [8] appears, read: 24 h and 48 h, only one value presented (inactive).
The mark [9] stands for this setting: ATCC6258, 24 h and 48 h, only one value presented (inactive).
Where [10] appears, read: Lichtheimia corymbifera, 272, 24 h and 48 h, only one value presented (inactive).
Where [11] appears, read: Trichophyton mentagrophytes, 445, 72 h and 120 h, only one value presented (inactive).
Where [12] appears, read: Candida tropicalis, 156, 24 h and 48 h, only one value presented (inactive).
Setting [13] is: ATCC44859, 24 h and 48 h, only one value presented (inactive).
Where [14] appears, read: Aspergillus fumigatus, 231, 24 h and 48 h, only one value presented (inactive).
Setting [15] is: Trichosporon beigelii, 1188, 24 h and 48 h, only one value presented (inactive), read-out: MIC (IC80) TB.

Take `CN(C)C(=S)N/N=C/c1cccc(Cl)c1Cl` [Compound 3c, (E)-2-(2,3-Dichlorobenzylidene)-N,N-dimethylhydrazinecarbothioamide]: the minimum inhibitory concentration (MIC) (in the data set on Candida glabrata 20/I (setting [8]); in the data set on Candida krusei ATCC 6258 (setting [9]); in the data set with Candida tropicalis 156 (setting [12]); in [3] (setting [13]); in [5] (setting [15])) was over 125 µM each time. In data set [1], the log k is 0.7214. Also, the IC50 (in the data set with Absidia corymbifera 272 (setting [10]); in data set [2] (setting [11]); in data set [4] (setting [14])) was over 125 µM in each case.
Turning to `CNC(=S)N/N=C/c1ccc(Br)cc1` [Compound 3l, (E)-2-(4-bromobenzylidene)-N-methylhydrazinecarbothioamide], the MIC (in the data set on Candida glabrata 20/I (setting [8]); in the data set with Candida krusei ATCC 6258 (setting [9]); in the data set on Candida tropicalis 156 (setting [12]); in data set [3] (setting [13]); in [5] (setting [15])) was over 500 µM each time. Besides, in data set [1], the log k was 0.6993. The 50% inhibitory concentration (IC50) with Absidia corymbifera 272 (setting [10]) was over 500 µM; in data set [2] (setting [11]), over 500 µM; in data set [4] (setting [14]), over 500 µM; in data set [6] (HCT-116, 72 h incubation, MTS), over 60 µM.
Take `S=C(N/N=C/c1ccc(Br)cc1)Nc1ccccc1` [Compound 3o, (E)-2-(4-bromobenzylidene)-N-phenylhydrazinecarbothioamide]: the minimum inhibitory concentration (MIC) (in the data set with Candida glabrata 20/I (setting [8]); in the data set with Candida krusei ATCC 6258 (setting [9]); with Candida tropicalis 156 (setting [12]); in data set [3] (setting [13]); in data set [5] (setting [15])) was over 500 µM in each case. This compound gave a log k in data set [1] of 0.8772. In addition, the IC50 is over 500 µM in the data set with Absidia corymbifera 272 (setting [10]); over 500 µM in data set [2] (setting [11]); over 500 µM in data set [4] (setting [14]); over 60 µM in [6] (HCT-116, 72 h incubation, MTS).
Turning to `CNC(=S)NN=Cc1ccc2ccccc2n1` [Compound 4a], the MIC with Candida glabrata 20/I (setting [8]) is over 500 µM; in the data set with Candida krusei ATCC 6258 (setting [9]), over 500 µM; in the data set with Candida tropicalis 156 (setting [12]), over 500 µM; in data set [3] (setting [13]) it was over 500 µM; in [5] (Trichosporon beigelii, 1188, read-out: MIC (IC80) TB), over 500 µM. This compound also showed a log k in [1] of 0.6329. In addition, the IC50 in the data set on Absidia corymbifera 272 (setting [10]) was over 500 µM; in data set [2] (setting [11]), over 500 µM; in data set [4] (setting [14]) it was over 500 µM; in [6] (HCT-116, 72 h incubation, MTS), over 25 µM.
In the case of `CCNC(=S)NN=Cc1ccc2ccccc2n1` [Compound 4c], the log k in data set [1] came to 0.6892.
In [1], `S=C(NN=Cc1ccc2ccccc2n1)Nc1ccccc1` [Compound 4d] displayed a log k of 0.7553.
On to `CCNC(=S)NN=Cc1ccc2cccc(O)c2n1` [Compound 4g], for which the log k in data set [1] was 0.6810.
As for `CN(C)C(=O)Nc1ccc(Cl)c(Cl)c1` [DCMU, 3-(3,4-dichlorophenyl)-1,1-dimethylurea, reference compound], the IC50 in data set [7] is ~1.9 µM and 1.9 µM.
In the case of `COc1cccc2c1C(=O)c1c(O)c3c(c(O)c1C2=O)C[C@@](O)(C(=O)CO)C[C@@H]3O[C@H]1C[C@H](N)[C@H](O)[C@H](C)O1` [DXR, doxorubicin, reference compound], in [6] (HCT-116, 72 h), the IC50 was 10 ± 1.1 µM.
For the compound `OC(Cn1cncn1)(Cn1cncn1)c1ccc(F)cc1F` [FLU, Fluconazole, reference compound], the minimal inhibitory concentration (MIC) is 0.98 µM (≈ 0.3 µg/mL) in the data set on Candida glabrata 20/I (24 h); 3.91 µM (≈ 1.2 µg/mL) in the data set on Candida glabrata 20/I (48 h); 3.91 µM (≈ 1.2 µg/mL) in the data set with Candida krusei ATCC 6258 (ATCC6258, 24 h); 15.6 µM (≈ 4.78 µg/mL) in the data set on Candida krusei ATCC 6258 (ATCC6258, 48 h); 0.12 µM (≈ 0.0368 µg/mL) in the data set on Candida tropicalis 156 (Candida tropicalis, 156, 24 h); over 125 µM with Candida tropicalis 156 (Candida tropicalis, 156, 48 h). The minimum inhibitory concentration (MIC) came to 0.06 µM (≈ 0.0184 µg/mL) in data set [3] (ATCC44859, 24 h); 0.12 µM (≈ 0.0368 µg/mL) in [3] (ATCC44859, 48 h); 0.24 µM (≈ 0.0735 µg/mL) in data set [5] (Trichosporon beigelii, 1188, 24 h, read-out: MIC (IC80) TB); 0.48 µM (≈ 0.147 µg/mL) in data set [5] (Trichosporon beigelii, 1188, 48 h, read-out: MIC (IC80) TB). The IC50 in the data set with Absidia corymbifera 272 (Lichtheimia corymbifera, 272, 24 h) was over 125 µM; with Absidia corymbifera 272 (Lichtheimia corymbifera, 272, 48 h) it was over 125 µM; in [2] (Trichophyton mentagrophytes, 445, 72 h), 1.95 µM; in data set [2] (Trichophyton mentagrophytes, 445, 120 h) it was 3.91 µM; in data set [4] (Aspergillus fumigatus, 231, 24 h), over 125 µM; in [4] (Aspergillus fumigatus, 231, 48 h), over 125 µM.

What is called MIC is the lowest concentration found to suppress growth. One may read the IC50 as the midpoint of a concentration-inhibition curve.
